# Laboratory results: patent US20050113455A1, “Method and composition for amelioration of pain” (priority 2003, published 2005)
# Tests used:
# [1] = test system: visceral nociception (stretching) in mice; experiment: Murine visceral pain model: stretching in mouse i.p. acetic acid test; format: in vivo; settings: for Potency at inhibiting visceral nociception relative to morphine: mouse i.p. acetic acid test, dose-response relationships; for MED (minimum dose at which the number of stretches during the observation period is significantly different from saline controls): mouse, s.c. administration, 0.6% acetic acid i.p., 30 min observation
# Description: Dose-response relationships for the polyamines listed in Table 1 were performed in the mouse i.p. acetic acid test.
# Assessment of Candidate Agents in a Murine Visceral Pain Model: There is an extensive literature on visceral pain in the acetic acid mouse model (Bidlack J M, Cohen D J, McLaughlin J P, Lou R, Ye Y, Wentland M P. 8-carboxamidocyclazocine: A long-acting, novel benzomorphan. J Pharmacol Exp Ther. 2002;302:374-380; Reichert J A, Daughters R S, Rivard R, Simone D A. Peripheral and preemptive opioid antinociception in a mouse visceral pain model. Pain. 2001;89:221-227; Farzin D, Asghari L, Nowrouzi M. Rodent antinociception following acute treatment with different histamine receptor agonists and antagonists. Pharmacol Biochem Behav. 2002;72:751-760; Hinschberger A, Butt 5, Lelong V, Boulouard M, Dumuis A, Dauphin F, Bureau R, Pfeiffer B, Renard P, Rault S. New benzo[h][1,6]naphthyridine and azepino[3,2-c]quinoline derivatives as selective antagonists of 5-ht4 receptors: Binding profile and pharmacological characterization. J Med Chem. 2003;46:138-147).
# The mice receive either an s.c. or i.p. injection (0.3 mL) of either saline or a test drug at varying doses. Fifteen to thirty minutes following the treatment, the animals receive an i.p. injection of 0.6% acetic acid in saline (sterile, 0.3 mL). The mice are then placed into holding cages and observed for 30 mm. The number of stretches the animals make following the acetic acid injections are counted. A stretch is identified by the animal extending its hind legs well behind its body. This posture is rarely seen in a non-injected animal.
# [2] = cited from earlier work
Compound,MED (minimum dose at which the number of stretches during the observation period is significantly different from saline controls) [1],Effectiveness in the murine visceral pain model (in words) [1],other results
"CCNCCCN[C@H]1CC[C@H](NCCCNCC)CC1 [CHX(3,4,3)-trans, N,N′-bis[3-(ethylamino)propyl]-trans-1,4-cyclohexanediamine]",0.0037 mg/kg s.c.,–,Potency at inhibiting visceral nociception relative to morphine [1]: more than three orders of magnitude more potent than morphine
"CCCCNCCCNCCCCNCCCNCCCC [DBSPM, N^1N^11-dibutylspermine]",0.12 mg/kg s.c.,–,–
"CCNCCCCNCCCCNCCCCNCC [DEHSPM, N^1,N^14-diethylhomospermine]",–,highly effective,Potency at inhibiting visceral nociception relative to morphine [1]: equipotent to morphine; Cognitive effects in human clinical trials [2]: lack of cognitive effects
"CCNCCCNCCCNCCCNCC [DENSPM, N^1,N^11-diethylnorspermine]",0.37 mg/kg s.c.,highly effective,–
"CCNCCCNCCCCNCCCNCC [DESPM, N^1,N^12-diethylspermine]",–,less so,–
"CC(C)NCCCNCCCCNCCCNC(C)C [DIPSPM, N^1N^12-diisopropylspermime]",–,less so,–
"C(CCNC1CCNCC1)CNC1CCNCC1 [PIP(3,4,3), N,N′-bis(4-piperidinyl)-1,4-butanediamine]",–,less so,–
"CN1CC[C@]23c4c5ccc(O)c4O[C@H]2[C@@H](O)C=C[C@H]3[C@H]1C5 [morphine, reference compound]",–,–,Overt cognitive / behavioural effects in mice ([1]; observed during mouse i.p. acetic acid test): produced stereotypical opiate induced hyperactivity and Straub tail
dihydroxydiethylnorspermine [(HO)2DENSPM],0.0037 mg/kg s.c.,–,–
